Source: patent publication US4091006A, “Esters of 3-hydroxyindone compounds” (priority 1975, dated 1978)
≈ marks a conversion by molar mass, not a printed value.

What was measured:
[1] = system: egg of the two-spotted mite; test: Mite Ovicide Test; format: in vivo, Tetranychus urticae (Koch); conditions: spray on eggs, 4 days
Source text: (§1) The test procedures were as follows:
The plants were allowed to dry thoroughly.
(§2) Compositions were rated on the basis of percent kill with a rating of 1 indicating no mortality; 3 signifying an approximately 50% mortality and 5 indicating 100% mortality at the indicated dosage.

Corn = test: Phytotoxicity, corn; conditions: 2500 ppm, 10 days
Method: (§5) Experiments were also conducted to determine the phytotoxicity of representative enol ester compositions with respect to healthy fresh plants. […] The test plants were sprayed in accordance with the procedure described above for the Mite Foliage Spray Test so as to deliver approximately 100 milliliters of test solution to the leaves of each plant tested. The sprayed plants and controls were set aside for approximately 1 hour to allow the solutions to dry and were then placed in the greenhouse. After 10 days the plants were visually inspected to determine the extent of foliage injury. A rating of 1 indicates no perceptible injury; 5 indicates the plant was dead and ratings of 2, 3 and 4 indicate intermediate degrees of injury based upon the number and extent to which leaves were injured.

Tomato = test: Phytotoxicity, tomato; conditions: 2500 ppm, 10 days
Method: as §5

[2] = system: eggs of the two-spotted mite; test: Fumigant toxicity, Method 1 (deposit in pie plate); format: in vivo; conditions: deposit approx. 160 μg per square cm, 4 days
Method: (§3) Two methods were used to evaluate fumigant properties:
Method 1: Fifty mg. of each compound were dissolved in 5 ml. of acetone and poured into a 20 cm. (bottom diameter) Pyrex No. 210 pie plate. The acetone was allowed to evaporate leaving a deposit of approximately 160 μg. per square cm. The plate was then placed in the bottom of a 50 pound metal lard container (about 30 cm. in diameter and 34 cm. high). Two excised bean plants, held in a 250 ml. Erlenmeyer flask containing 100 ml. of tap water and infested with eggs of the two-spotted mite, were placed in the center of the pie plate. The container was held in the insectary (temperature 80±5° F., 50±5% R. H.) for four days before mortality determinations were made.

Cotton = test: Phytotoxicity, cotton; conditions: 2500 ppm, 10 days
Method: as §5

Mite Adults = test: whole plant or invertebrate; conditions: for Mite Adults LD95: concentration to kill 95 percent; for LC50: Tetranychus urticae, read-out: Mite Adults LD50
Method: Adults and nymphal stages of the two-spotted mite (tetranychus urticae (Koch)), reared on Tendergreen bean plants at 80±5° F. and 50±5 percent relative humidity, were the test organisms. Infested leaves from a stock culture were placed on the primary leaves of two bean plants 6 to 8 inches in height, growing in a 21/2 inch clay pot. 150-200 Mites, a sufficient number for testing, transferred from the excised leaves to the fresh plants in a period of 24 hours. Following the 24 hour transfer period, the excised leaves were removed from the infested plants. The test compounds were formulated by diluting the stock suspension with water to provide suspensions containing the desired amount of test compound per million parts of final formulation. The potted plants (one pot per compound) were placed on a revolving turntable and sprayed with 100-110 milliliters of test compound formulation by use of a DeVilbis spray gun set at 40 psi. air pressure. This application, which lasted 30 seconds, was sufficient to wet the plants to run-off. As a control, 100-110 milliliters of a water solution containing acetone and emulsifier in the same concentrations as the test compound formulation, but containing no test compound, were also sprayed on infested plants. The sprayed plants were held at 80±5° F. and 50±5 percent relative humidity for 4 days, after which, a mortality count of motile forms was made. Microscopic examination for motile forms was made on the leaves of the test plants. Any individual which was capable of locomotion upon prodding was considered living.
(§4) Side by side comparison tests were conducted to determine the effectiveness of selected enol ester compounds relative to (bis(p-chlorophenyl)trichlorethanol) a miticide sold under the trademark Kelthane and ovex (p-chlorophenyl-p-chlorobenzene sulfonate) two widely used commercial miticides.

[3] = system: egg forms of the two-spotted mite; test: Fumigant toxicity, Method 2 (treated plants near untreated infested plants); format: in vivo; conditions: 500 ppm dip, 4 days
Method: as §3
Method 2: Excised bean plants infested with egg forms of the two-spotted mite were dipped in an aqueous preparation (500 ppm) of the test compound. The treated plants were transferred to 250 ml. Erlenmeyer flasks containing 100 ml. of tap water. Four flasks holding treated plants were evenly spaced around a similar flask in which were placed untreated mite-infested plants so that the leaves of the treated foliage were in close proximity (1-3 inches) to the untreated plants. Four days later mortality determinations were made.

[4] = system: Perennial rye grass, crabgrass, red root pigweed, mustard; test: Preliminary Herbicide Seed Germination Test; conditions: each rated 1 (no injury) to 5 (no seedlings emerged)
[5] = system: adults and nymphal stages of the two-spotted mite; test: Mite Foliage Spray Test; format: in vivo, Tetranychus urticae (Koch); conditions: 4 days
Source text: as §1, §2

Mite Ova = test: whole plant or invertebrate; conditions: for Mite Ova LD95: concentration to kill 95 percent; for LC50: Tetranychus urticae, read-out: Mite Ova LD50
Method: The test organism was the egg of the two-spotted mite (Tetranychus urticae (Koch)), as obtained from adults reared on Tendergreen bean plants under controlled conditions of 80±5° F. and 50±5 percent relative humidity. Heavily infested leaves from a stock culture were placed on the primary leaves of two bean plants 6 to 8 inches in height, growing in a 21/2 inch clay pot. Females were allowed to oviposit for a period of 48 hours and then the leaves of the infested plants were dipped in a solution containing 800 parts of tetraethyl pyrophosphate per million parts of water in order to destroy the reproductory forms and thus prevent further egg laying. […] The plants were allowed to dry thoroughly. […] The potted plants (one pot per compound) were placed on a revolving turntable and sprayed with 100-110 milliliters of test compound formulation by use of a DeVilbis spray gun set at 40 psig. air pressure. This application, which lasted 30 seconds, was sufficient to wet the plants to run-off. As a control, 100-110 milliliters of a water solution containing acetone and emulsifier in the same concentrations as the test compound formulation, but containing no test compound, were also sprayed on plants infested with eggs. The sprayed plants were held at 80±5° F. and 50±5 percent relative humidity for 4 days, after which a microscopic examination was made of unhatched (dead) and hatched (living) eggs.
as §4

Bean = test: Phytotoxicity, bean; conditions: 2500 ppm, 10 days
Method: as §5

[6] = rating/maximum 40: 100 and 1000 ppm, four species, 10-12 days
[7] = rating/maximum 15: 100 ppm only, crabgrass omitted
[8] = rating/maximum 20: 100 ppm only, four species

In the case of CCCCC(CC)C(=O)OC1=C(c2c(C)cc(C)cc2C)C(=O)c2ccccc21 (stereo not drawn) [2-(2',4',6'-Trimethylphenyl)-3-(2-ethylhexanoyloxy)indone], the “Mite Ova rating” value [1] is reported as 5 (100% mortality), the “Phytotoxicity Rating, Corn” value (Corn) is reported as 1 and the “Phytotoxicity Rating, Tomato” value (Tomato) is reported as 1. For the same molecule, the “Fumigant Toxicity Method 1” value [2] was 1, the “Phytotoxicity Rating, Cotton” value (Cotton) was 1 and the “Mite Adults LD95” value (Mite Adults) was 230 ppm. The “Fumigant Toxicity Method 2” value [3] was 1, the “Herbicide (total preemergence rating)” value [4, 6] was 29/40 and the “Mite Adult rating” value [5] was 5 (100% mortality). The “Mite Ova LD95” value (Mite Ova) was 6 ppm and the “Phytotoxicity Rating, Bean” value (Bean) was 2.
With OC(c1ccc(Cl)cc1)(c1ccc(Cl)cc1)C(Cl)(Cl)Cl [Kelthane, bis(p-chlorophenyl)trichlorethanol] the LC50 (Mite Adults) was 20 mg/L (≈ 54 µM), the “Mite Adults LD95” value (Mite Adults) was 65 ppm and the LC50 (Mite Ova) was 370 mg/L (≈ 999 µM). For the same molecule, the “Mite Ova LD95” value (Mite Ova) was 700 ppm.
With Cc1cc(C)c(C2=C(OC(=O)C(C)C)c3ccccc3C2=O)c(C)c1 [2-(2',4',6'-Trimethylphenyl)-3-(isobutyryloxy)indone] the “Mite Ova rating” value [1] was 5 (100% mortality), the “Phytotoxicity Rating, Corn” value (Corn) was 4 and the “Phytotoxicity Rating, Tomato” value (Tomato) was 2. The “Fumigant Toxicity Method 1” value [2] was 5 (80-100% control), the “Phytotoxicity Rating, Cotton” value (Cotton) was 2 and the “Fumigant Toxicity Method 2” value [3] was 5 (80-100% control). For the same molecule, the “Herbicide (total preemergence rating)” value [4, 6] was 37/40, the “Mite Adult rating” value [5] was 5 (100% mortality) and the “Phytotoxicity Rating, Bean” value (Bean) was 1.
For Cc1cc(C)c(C2=C(OC(=O)CC3C=CCC3)c3ccccc3C2=O)c(C)c1 (stereo not drawn) [2-(2',4',6'-Trimethylphenyl)-3-(cyclopent-2-en-1-ylacetoxy)indone], the “Mite Ova rating” value [1] was 5 (100% mortality), the “Phytotoxicity Rating, Corn” value (Corn) was 1 and the “Phytotoxicity Rating, Tomato” value (Tomato) was 1. The “Fumigant Toxicity Method 1” value [2] was 1, the “Phytotoxicity Rating, Cotton” value (Cotton) was 2 and the “Fumigant Toxicity Method 2” value [3] was 1. The “Herbicide (total preemergence rating)” value [4, 7] was 11/15, the “Mite Adult rating” value [5] was 5 (100% mortality) and the “Phytotoxicity Rating, Bean” value (Bean) was 1.
With CCCCCCCCCCCCOC(=O)OC1=C(c2c(C)cc(C)cc2C)C(=O)c2ccccc21 [2-(2',4',6'-Trimethylphenyl)-3-(dodecyloxycarbonyloxy)indone] the “Mite Ova rating” value [1] was 5 (100% mortality), the “Phytotoxicity Rating, Corn” value (Corn) was 2 and the “Phytotoxicity Rating, Tomato” value (Tomato) was 1. The “Fumigant Toxicity Method 1” value [2] was 1, the “Phytotoxicity Rating, Cotton” value (Cotton) was 1 and the “Fumigant Toxicity Method 2” value [3] was 1. The “Herbicide (total preemergence rating)” value [4, 8] was 17/20, the “Mite Adult rating” value [5] was 5 (100% mortality) and the “Phytotoxicity Rating, Bean” value (Bean) was 1.
With O=S(=O)(Oc1ccc(Cl)cc1)c1ccc(Cl)cc1 [Ovex, p-chlorophenyl-p-chlorobenzene sulfonate, reference compound] the LC50 (Mite Adults) was 1000 mg/L, the LC50 (Mite Ova) was 200 mg/L and the “Mite Ova LD95” value (Mite Ova) was 300 ppm.
For COC(=O)CCC(=O)OC1=C(c2c(C)cc(C)cc2C)C(=O)c2ccccc21 [2-(2',4',6'-Trimethylphenyl)-3-(3-methoxycarbonylpropionyloxy)indone], the “Mite Ova rating” value [1] was 5 (100% mortality), the “Phytotoxicity Rating, Corn” value (Corn) was 1 and the “Phytotoxicity Rating, Tomato” value (Tomato) was 1. For the same molecule, the “Fumigant Toxicity Method 1” value [2] was 1, the “Phytotoxicity Rating, Cotton” value (Cotton) was 1 and the “Fumigant Toxicity Method 2” value [3] was 1. The “Herbicide (total preemergence rating)” value [4, 7] was 15/15, the “Mite Adult rating” value [5] was 5 (100% mortality) and the “Phytotoxicity Rating, Bean” value (Bean) was 1.
CCCCCCCCCCCCCCCCCC(=O)OC1=C(c2c(C)cc(C)cc2C)C(=O)c2ccccc21 [2-(2',4',6'-Trimethylphenyl)-3-(octadecanoyloxy)indone] was tested, and the “Mite Ova rating” value [1] was 5 (100% mortality), the “Phytotoxicity Rating, Corn” value (Corn) was 1 and the “Phytotoxicity Rating, Tomato” value (Tomato) was 1. For the same molecule, the “Fumigant Toxicity Method 1” value [2] was 1, the “Phytotoxicity Rating, Cotton” value (Cotton) was 1 and the “Fumigant Toxicity Method 2” value [3] was 1. For the same molecule, the “Herbicide (total preemergence rating)” value [4, 8] was 19/20, the “Mite Adult rating” value [5] was 5 (100% mortality) and the “Phytotoxicity Rating, Bean” value (Bean) was 1.
For Cc1cc(C)c(C2=C(OC(=O)CCCCl)c3ccccc3C2=O)c(C)c1 [2-(2',4',6'-Trimethylphenyl)-3-(4-chlorobutyryloxy)indone], the “Mite Ova rating” value [1] was 5 (100% mortality), the “Phytotoxicity Rating, Corn” value (Corn) was 2 and the “Phytotoxicity Rating, Tomato” value (Tomato) was 2. The “Fumigant Toxicity Method 1” value [2] was 1, the “Phytotoxicity Rating, Cotton” value (Cotton) was 2 and the “Fumigant Toxicity Method 2” value [3] was 1. The “Herbicide (total preemergence rating)” value [4, 7] was 14/15, the “Mite Adult rating” value [5] was 5 (100% mortality) and the “Phytotoxicity Rating, Bean” value (Bean) was 1.
With CCC(=O)OC1=C(c2c(C)cc(C)cc2C)C(=O)c2ccccc21 [2-(2',4',6'-Trimethylphenyl)-3-(propionyloxy)indone] the “Mite Ova rating” value [1] was 5 (100% mortality), the “Phytotoxicity Rating, Corn” value (Corn) was 2 and the “Phytotoxicity Rating, Tomato” value (Tomato) was 2. For the same molecule, the “Fumigant Toxicity Method 1” value [2] was 5 (80-100% control), the “Phytotoxicity Rating, Cotton” value (Cotton) was 1 and the “Fumigant Toxicity Method 2” value [3] was 5 (80-100% control). The “Herbicide (total preemergence rating)” value [4, 6] was 32/40, the “Mite Adult rating” value [5] was 5 (100% mortality) and the “Phytotoxicity Rating, Bean” value (Bean) was 1.
For “2-(2',4',6'-Trimethylphenyl)-3-(neodecanoyloxy)indone”, the “Mite Ova rating” value [1] was 5 (100% mortality), the “Phytotoxicity Rating, Corn” value (Corn) was 2 and the “Phytotoxicity Rating, Tomato” value (Tomato) was 1. For the same molecule, the “Fumigant Toxicity Method 1” value [2] was 1, the “Phytotoxicity Rating, Cotton” value (Cotton) was 1 and the “Fumigant Toxicity Method 2” value [3] was 1. For the same molecule, the “Herbicide (total preemergence rating)” value [4, 8] was 10/20, the “Mite Adult rating” value [5] was 5 (100% mortality) and the “Phytotoxicity Rating, Bean” value (Bean) was 2.
